# Results as given in US20110288174A1, “Monohydrate of 4-(phenyl)ethyl]-amino}methyl)benzoic acid” (BAYER SCHERING PHARMA AKTIENGESELLSCHAFT, priority 2008, published 2011).
# Test: Stability of the solid forms (thermodynamic and storage stability)
# Type: physicochemical
# Conditions: for thermodynamic stability of the crystal form: solid form of the compound of the formula (I)
storage stability (even after processing to aqueous suspensions),thermodynamic stability of the crystal form,SMILES
storage-stable,thermodynamically stable,"O=C(O)CCCCN(CCc1ccccc1OCc1ccc(CCc2ccccc2)cc1)Cc1ccc(C(=O)O)cc1 [monohydrate A, monohydrate of 4-({(4-carboxybutyl)[2-(2-{[4-(2-phenylethyl)benzyl]oxy}phenyl)ethyl]amino}methyl)benzoic acid in form A]"
–,metastable,"O=C(O)CCCCN(CCc1ccccc1OCc1ccc(CCc2ccccc2)cc1)Cc1ccc(C(=O)O)cc1 [modification IV, 4-({(4-Carboxybutyl)[2-(2-{[4-(2-phenylethyl)benzyl]oxy}phenyl)ethyl]amino}methyl)benzoic acid]"
